# Assay results published in patent US20130123215A1, “2,5-DIOXOIMIDAZOLIDIN-1-YL-3-PHENYLUREA DERIVATIVES AS FORMYL PEPTIDE RECEPTOR LIKE-1 (FPRL-1) RECEPTOR MODULATORS” (ALLERGAN, INC., priority 2011, published 2013).
# Where “and” joins values, the source holds several entries; their conditions need not be identical. Equal entries are not always repeated.
# Molecular target: T1, FPRL-1 (Homo sapiens, UniProt P25090)
# T1 construct: expressed in transfected cells; host or cells: CHO-Gα16 cells stably expressing FPRL1
# T1 sequence (P25090 1-351): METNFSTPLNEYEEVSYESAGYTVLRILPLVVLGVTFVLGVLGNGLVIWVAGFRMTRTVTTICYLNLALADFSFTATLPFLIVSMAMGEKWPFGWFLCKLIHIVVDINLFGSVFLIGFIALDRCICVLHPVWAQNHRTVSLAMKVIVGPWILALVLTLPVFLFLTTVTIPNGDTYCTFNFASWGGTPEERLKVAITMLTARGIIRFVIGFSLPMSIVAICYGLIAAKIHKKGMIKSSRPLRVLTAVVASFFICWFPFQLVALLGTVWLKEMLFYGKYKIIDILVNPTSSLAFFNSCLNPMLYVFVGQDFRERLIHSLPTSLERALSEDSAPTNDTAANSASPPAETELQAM
# Test: FPRL-1 Ga16-CHO compound-induced calcium activity (FLIPR Tetra)
# Type: cell-based
# Settings: CHO-Gα16 cells stably expressing FPRL1; calcium activity on FLIPR Tetra; tested at 0.61 to 10,000 nM; read-out: FPRL-1 Ga16-CHO EC50
# Description: HEK-Gα16 and CHO-Gα16 cells stably expressing FPRL1 were cultured in (F12, 10% FBS, 1% PSA, 400 μg/ml geneticin and 50 μg/ml hygromycin) and HEK-Gqi5 cells stable expressing FPR1 were cultured in (DMEM high glucose, 10% FBS, 1% PSA, 400 μg/ml geneticin and 50 μg/ml hygromycin). In general, the day before the experiment, 18,000 cells/well were plated in a 384-well clear bottom poly-d-lysine coated plate. The following day the screening compound-induced calcium activity was assayed on the FLIPR^Tetra. The drug plates were prepared in 384-well microplates using the EP3 and the MultiPROBE robotic liquid handling systems. Compounds were tested at concentrations ranging from 0.61 to 10,000 nM. Results are expressed as EC50 (nM) and efficacy values.
row,EC50,Compound
1,0.302 µM,"CC(C)C1(CC(=O)NCC(=O)OC(C)(C)C)NC(=O)N(NC(=O)Nc2ccc(Br)cc2)C1=O (centres unmarked) [Compound 85, tert-Butyl 2-(2-(1-(3-(4-bromophenyl)ureido)-4-isopropyl-2,5-dioxoimidazolidin-4-yl)acetamido)acetate]"
2,0.0143 µM,"O=C(Nc1ccc(Br)cc1)NN1C(=O)NC(C2CC2)(C2CC2)C1=O [Compound 66, 1-(4-Bromophenyl)-3-(4,4-dicyclopropyl-2,5-dioxoimidazolidin-1-yl)urea]"
3,0.0513 µM,"CC(C)C1(CC(=O)NCC(N)=O)NC(=O)N(NC(=O)Nc2ccc(Br)cc2)C1=O (centres unmarked) [Compound 96, N-(2-Amino-2-oxoethyl)-2-(1-(3-(4-bromophenyl)ureido)-4-isopropyl-2,5-dioxoimidazolidin-4-yl)acetamide]"
4,0.0015 µM and 0.00207 µM,"CC1(CCc2cccc(O)c2)NC(=O)N(NC(=O)Nc2ccc(Br)cc2)C1=O (centres unmarked) [Compound 52, 1-(4-Bromophenyl)-3-(4-(3-hydroxyphenethyl)-4-methyl-2,5-dioxoimidazolidin-1-yl)urea]"
5,0.0079 µM,"CC1(CCc2ccc(O)c(F)c2)NC(=O)N(NC(=O)Nc2ccc(Br)cc2)C1=O (centres unmarked) [Compound 47, 1-(4-Bromophenyl)-3-(4-(3-fluoro-4-hydroxyphenethyl)-4-methyl-2,5-dioxoimidazolidin-1-yl)urea]"
6,0.0162 µM,"CC(C)C1(CC(=O)NCCO)NC(=O)N(NC(=O)Nc2ccc(Br)cc2)C1=O (centres unmarked) [Compound 84, 2-(1-(3-(4-Bromophenyl)ureido)-4-isopropyl-2,5-dioxoimidazolidin-4-yl)-N-(2-hydroxyethyl)acetamide]"
7,0.00516 µM,"CC(C)C1(CC(=O)NCCC(=O)O)NC(=O)N(NC(=O)Nc2ccc(Br)cc2)C1=O (centres unmarked) [Compound 93, 3-(2-(1-(3-(4-Bromophenyl)ureido)-4-isopropyl-2,5-dioxoimidazolidin-4-yl)acetamido)propanoic acid]"
8,0.109 µM,"CC(C)C1(CC(=O)NC(C)(C)C(=O)O)NC(=O)N(NC(=O)Nc2ccc(Br)cc2)C1=O (centres unmarked) [Compound 95, 2-(2-(1-(3-(4-Bromophenyl)ureido)-4-isopropyl-2,5-dioxoimidazolidin-4-yl)acetamido)-2-methylpropanoic acid]"
9,0.0029 µM,"CC1(CCc2cccc(O)c2)NC(=O)N(NC(=O)Nc2ccc(Br)cc2F)C1=O (centres unmarked) [Compound 53, 1-(4-Bromo-2-fluorophenyl)-3-(4-(3-hydroxyphenethyl)-4-methyl-2,5-dioxoimidazolidin-1-yl)urea]"
10,0.0791 µM,"CC(C)C1(CC(=O)NCCC(=O)OC(C)(C)C)NC(=O)N(NC(=O)Nc2ccc(Br)cc2)C1=O (centres unmarked) [Compound 91, tert-Butyl 3-(2-(1-(3-(4-bromophenyl)ureido)-4-isopropyl-2,5-dioxoimidazolidin-4-yl)acetamido)propanoate]"
11,0.0035 µM,"Cc1ccc(CCC2(C)NC(=O)N(NC(=O)Nc3ccc(Br)cc3)C2=O)o1 (centres unmarked) [Compound 46, 1-(4-Bromophenyl)-3-(4-methyl-4-(2-(5-methylfuran-2-yl)ethyl)2,5-dioxoimidazolidin-1-yl)urea]"
12,0.086 µM,CC1(CCc2cccs2)NC(=O)N(NC(=O)Nc2ccc(Br)cc2F)C1=O (centres unmarked) [Compound 44]
13,0.0079 µM,CC1(CCc2cccs2)NC(=O)N(NC(=O)Nc2ccc(Br)cc2)C1=O (centres unmarked) [Compound 43]

# The remaining lines, values behind:
row,Compound,EC50
1,"CC1(COc2ccccc2)NC(=O)N(NC(=O)Nc2ccc(Br)cc2)C1=O (centres unmarked) [Compound 25, 1-(4-Bromophenyl)-3-(4-methyl-2,5-dioxo-4-(phenoxymethyl)imidazolidin-1-yl)urea]",0.0221 µM
2,"CCc1ccc(NC(=O)NN2C(=O)NC(CC)(CC)C2=O)cc1 [Compound 4, 1-(4-Ethylphenyl)-3-(4,4-diethyl-2,5-dioxoimidazolidin-1-yl)urea]",0.125 µM
3,CC1(CCc2ccc(Cl)cc2)NC(=O)N(NC(=O)Nc2ccc(Br)cc2F)C1=O (centres unmarked) [Compound 34],1.38 µM
4,CC(C)CC1(CCc2ccccc2)NC(=O)N(NC(=O)Nc2ccc(Br)cc2F)C1=O (centres unmarked) [Compound 32],0.105 µM
5,"CCC1(CC)NC(=O)N(NC(=O)Nc2ccc(Br)cc2)C1=O [Compound 1, 1-(4-Bromophenyl)-3-(4,4-diethyl-2,5-dioxoimidazolidin-1-yl)urea]",0.0091 µM
6,"CCC1(CCc2ccccc2)NC(=O)N(NC(=O)Nc2ccc(Br)cc2F)C1=O (centres unmarked) [Compound 29, 1-(4-Bromo-2-fluorophenyl)-3-(4-ethyl-2,5-dioxo-4-(phenethyl)imidazolidin-1-yl)urea]",< 0.002 µM
7,"CCC1(CC)NC(=O)N(NC(=O)Nc2ccc(SC)cc2)C1=O [Compound 8, 1-(4-Methylthiophenyl)-3-(4,4-diethyl-2,5-dioxoimidazolidin-1-yl)urea]",0.0371 µM
8,"CC(C)C1(CC(=O)NC(CO)CO)NC(=O)N(NC(=O)Nc2ccc(Br)cc2)C1=O (centres unmarked) [2-[1-{[(4-Bromophenyl)carbamoyl]amino}-2,5-dioxo-4-(propan-2-yl)imidazolidin-4-yl]-N-(1,3-dihydroxypropan-2-yl)acetamide]",0.0162 µM
9,CC1(CCc2ccco2)NC(=O)N(NC(=O)Nc2ccc(Br)cc2F)C1=O (centres unmarked) [Compound 36],0.0398 µM
10,"CCC1(CC)NC(=O)N(NC(=O)Nc2ccc(Cl)cc2)C1=O [Compound 2, 1-(4-Chlorophenyl)-3-(4,4-diethyl-2,5-dioxoimidazolidin-1-yl)urea]",0.027 µM
11,"O=C(Nc1ccc(Br)cc1)NN1C(=O)NC2(CCCCC2)C1=O [Compound 14, 1-(4-Bromophenyl)-3-(2,4-dioxo-1,3-diazaspiro[4.5]decan-3-yl)urea]",0.0136 µM
12,"CCC1(CC)NC(=O)N(NC(=O)Nc2ccc(Cl)cc2F)C1=O [Compound 16, 1-(4-Chloro-2-fluorophenyl)-3-(4,4-diethyl-2,5-dioxoimidazolidin-1-yl)urea]",0.039 µM
13,"CCC1(CC)NC(=O)N(NC(=O)Nc2ccc(C#N)cc2)C1=O [Compound 5, 1-(4-Cyanophenyl)-3-(4,4-diethyl-2,5-dioxoimidazolidin-1-yl)urea]",1.23 µM
14,"CC1(COc2ccccc2)NC(=O)N(NC(=O)Nc2ccc(Br)cc2F)C1=O (centres unmarked) [Compound 28, 1-(4-Bromo-2-fluorophenyl)-3-(4-methyl-2,5-dioxo-4-(phenoxymethyl)imidazolidin-1-yl)urea]",0.0521 µM
15,"CC1(CCc2cccc(F)c2)NC(=O)N(NC(=O)Nc2ccc(Br)cc2)C1=O (centres unmarked) [Compound 41, 1-(4-Bromophenyl)-3-(4-(3-fluorophenethyl)-4-methyl-2,5-dioxoimidazolidin-1-yl)urea]",0.0111 µM
16,"CCC1(CCc2ccccc2)NC(=O)N(NC(=O)Nc2ccc(Br)cc2)C1=O (centres unmarked) [Compound 30, 1-(4-Bromophenyl)-3-(4-ethyl-2,5-dioxo-4-(phenethyl)imidazolidin-1-yl)urea]",0.0005 µM
17,"O=C(Nc1ccc(Br)cc1F)NN1C(=O)NC2(CCCCC2)C1=O [Compound 15, 1-(4-Bromo-2-fluorophenyl)-3-(2,4-dioxo-1,3-diazaspiro[4.5]decan-3-yl)urea]",0.233 µM
18,"CCc1ccc2[nH]c(C3(C)NC(=O)N(c4ccc(Br)cc4)C3=O)cc2c1 (centres unmarked) [3-(4-Bromophenyl)-5-(5-ethyl-1H-indol-2-yl)-5-methylimidazolidine-2,4-dione]",2.59 µM
19,"CCC1(CC)NC(=O)N(NC(=O)Nc2ccc(Br)cc2F)C1=O [Compound 6, 1-(4-Bromo-2-fluorophenyl)-3-(4,4-diethyl-2,5-dioxoimidazolidin-1-yl)urea]",0.0156 µM
20,"O=C(Nc1ccc(Br)cc1F)NN1C(=O)NC2(CCCC2)C1=O [Compound 11, 1-(4-Bromo-2-fluorophenyl)-3-(2,4-dioxo-1,3-diazaspiro[4.4]nonan-3-yl)urea]",0.0239 µM
21,"CCC1(CC)NC(=O)N(NC(=O)Nc2ccc(C)cc2)C1=O [Compound 7, 1-(4-Methylphenyl)-3-(4,4-diethyl-2,5-dioxoimidazolidin-1-yl)urea]",0.096 µM
22,"CC1(CCc2ccccc2F)NC(=O)N(NC(=O)Nc2ccc(Br)cc2)C1=O (centres unmarked) [Compound 37, 1-(4-Bromophenyl)-3-(4-(2-fluorophenethyl)-4-methyl-2,5-dioxoimidazolidin-1-yl)urea]",0.014 µM

# Same assay, conditions: FPRL-1 Ga16-CHO EC50, CHO-Gα16 cells stably expressing FPRL1; calcium activity on FLIPR Tetra; tested at 0.61 to 10,000 nM
row,Compound,EC50
1,"CCOP(=O)(O)CNC(=O)CC1(C(C)C)NC(=O)N(NC(=O)Nc2ccc(Br)cc2)C1=O (centres unmarked) [Compound 89, Ethyl hydrogen((2-(1-(3-(4-bromophenyl)ureido)-4-isopropyl-2,5-dioxoimidazolidin-4-yl)acetamido)methyl)phosphonate]",0.313 µM
2,"CCOP(=O)(CNC(=O)CC1(C(C)C)NC(=O)N(NC(=O)Nc2ccc(Br)cc2)C1=O)OCC (centres unmarked) [Compound 86, Diethyl((2-(1-(3-(4-bromophenyl)ureido)-4-isopropyl-2,5-dioxoimidazolidin-4-yl)acetamido)methyl)phosphonate]",0.272 µM
3,"CCC1(CCc2ccccc2C(=O)OC)NC(=O)N(NC(=O)Nc2ccc(Br)cc2)C1=O (centres unmarked) [Compound 60, Methyl 2-(2-(1-(3-(4-bromophenyl)ureido)-4-ethyl-2,5-dioxoimidazolidin-4-yl)ethyl)benzoate]",0.0103 µM
